Measurements from PMC7663616, “(5-Hydroxy-4-oxo-2-styryl-4H-pyridin-1-yl)-acetic Acid Derivatives as Multifunctional Aldose Reductase Inhibitors” (Molecules, 2020).
Values joined by “and” are separate entries in the source; they are usually repeats but may differ in a detail not shown here. Equal entries are not always repeated. Where two headings read alike, the source gives them in different places.

How the values were obtained:
[1] = target: T1, human recombinant ALR1 (Homo sapiens, UniProt P14550); assay: ALR1 enzyme inhibition assay (NADPH oxidation, sodium D-gluconate substrate); type: biochemical; details: for inhibition at 100 µM: read-out: ALR1 Inh. %; for SI: selectivity index, defined as IC50[ALR1]: IC50[ALR2]
T1 sequence (P14550 1-325): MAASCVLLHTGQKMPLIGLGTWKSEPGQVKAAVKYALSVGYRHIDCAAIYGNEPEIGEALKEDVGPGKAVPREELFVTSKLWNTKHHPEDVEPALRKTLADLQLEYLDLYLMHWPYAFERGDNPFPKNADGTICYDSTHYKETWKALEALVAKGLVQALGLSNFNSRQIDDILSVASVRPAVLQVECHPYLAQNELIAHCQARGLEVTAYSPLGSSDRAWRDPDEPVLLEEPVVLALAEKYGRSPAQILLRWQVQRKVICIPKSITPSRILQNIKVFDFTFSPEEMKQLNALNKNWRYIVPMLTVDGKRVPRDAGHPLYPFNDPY
Method: (§1) All the title compounds were tested for their inhibitory activity against human recombinant ALR2.
The ALR2 inhibition activity was evaluated in a mixture of reaction with 50 μL NADPH (0.1 mM), 50 μL sodium phosphate buffer (pH = 6.2, 100 mM), 50 μL human recombinant ALR2, 1 μL dimethyl sulfoxide (DMSO) as solvent, and 50 μL D,L-glyceraldehyde (10 mM) which served as a substrate. […] Before the substrate was added, the mixture was incubated at 30 °C for 3 min, then the reaction was started when the substrate was added, and was monitored for 4 min. The ALR1 inhibition activity experiment was conducted at 37 °C in the mixture containing 50 μL NADPH (0.12 mM), 50 μL human recombinant ALR1, 50 μL sodium phosphate buffer (pH = 7.2, 100 mM), 50 μL sodium […] (20 mM) as a substrate, and 1 μL DMSO as solvent. Before the substrate sodium […] was added, the mixture was incubated at 37 °C for 3 min, then the substrate was added to start the reaction, which was monitored for 4 min.
(§2) The inhibitory activities of the title synthetic compounds against ALR2 and ALR1 were examined by adding 1 μL of the inhibitor solution to the ALR2 or ALR1 mixtures. All compounds were dissolved in DMSO, and the solutions were diluted with DMSO to desirable concentrations. To correct for the nonenzymatic oxidation of NADPH, the rate of NADPH oxidation in the presence of all of the reaction mixture components except the substrate was subtracted from each experimental rate. The title compounds were tested at concentrations ranging from 100 μM to 1 μM, except compound 7l which were tested 10 μM to 0.1 μM. […] The inhibitory rates of tested compounds were calculated by equation as follows:Inhibitory rate (%) = (1 − ∆Asample/∆AE+DMSO) × 100%(1) sample = enzyme + compound + DMSO(2) E + DMSO = enzyme + DMSO(3)
(§3) The experiments were performed in triplicate.

[2] = target: human recombinant ALR2 (Homo sapiens, UniProt P15121); assay: ALR2 enzyme inhibition assay (NADPH oxidation, D,L-glyceraldehyde substrate); type: biochemical
Method: as §1
The ALR2 inhibition activity was evaluated in a mixture of reaction with 50 μL NADPH (0.1 mM), 50 μL sodium phosphate buffer (pH = 6.2, 100 mM), 50 μL human recombinant ALR2, 1 μL dimethyl sulfoxide (DMSO) as solvent, and 50 μL D,L-glyceraldehyde (10 mM) which served as a substrate. […] Before the substrate was added, the mixture was incubated at 30 °C for 3 min, then the reaction was started when the substrate was added, and was monitored for 4 min.
as §2, with “rate.” for “rate. The title compounds were tested at concentrations ranging from 100 μM to 1 μM, except compound 7l which were tested 10 μM to 0.1 μM.”
as §3

[3] = tested on: lipid peroxidation in rat brain homogenate; assay: Lipid peroxidation suppression (TBARS/MDA) in rat brain homogenate induced by Fe(III)/ascorbic acid; type: biochemical; details: tested in concentration of 100 μM, n = 3
Source text: Lipid peroxidation reactions involve free radical attacks on unsaturated fatty acid, producing free radicals and lipid peroxides which eventually harm the organism and usually decompose to form poisonous malonaldehyde (MDA). Thiobarbituric acid reactive substances (TBARS), which generated from the condensation of thiobarbituric acid and malondialdehyde, are considered as key biomarkers to determine the level of lipid peroxidation. For further identification that the derivatives tested in DPPH scavenging assay can be effective in heterogeneous oxidative pathway, the suppression effect of compounds on the hydroxyl radical-dependent lipoperoxidation in rat brain homogenate oxidant system which induced by Fe(III)/ascorbic acid was also evaluated.
Compounds 7a, 7c, 7g and 7k–l that were already described in the DPPH radical scavenging activity were investigated in the suppression of lipid peroxidation (Table 3).
(§4) Antioxidant assays were performed with the similar protocol as described previously.

[4] = DPPH radical scavenging assay; details: n = 3
Method: In this part, the antioxidant activity was measured by an intrinsic chemical reactivity toward radicals, in a homogeneous reaction system of the methanol solution of 1,1-diphenyl-2-trinitrophenylhydrazine (DPPH) (0.2 mM), and 6-hydroxy-2,5,7,8-tetramethyl- chroman-2-carboxylic acid (Trolox) served as a reference compound.
as §4

[5] = parameters: method as in Lewis F. W. et al [36]; details: 100 μM column; ref Lewis F. W. et al [36]; cited from earlier work
[6] = tested on: lipid peroxidation in rat brain homogenate; parameters: method as in Chaves S. et al. [37]; details: ref Chaves S. et al. [37]; cited from earlier work
[7] = tested in concentration of 100 μM, n = 3
[8] = n = 3, mean ± SD, read-out: IC50 for ALR2
[9] = raw data, average of three replicates, unit not given (molar scale), read-out: IC50 average (ALR2)
[10] = raw data, single replicate, unit not given (molar scale by log(dose)), read-out: IC50 (ALR2)

Structure (SMILES)	IC50 ([1]; n = 3)	inhibition at 100 µM [1, 7]	IC50 [2, 8]	IC50 [2, 9]	IC50 [2, 10]	MDA inh. % [3]	% of Inhibition of Control Value (DPPH) ([4]; 100 μM)	also measured
O=C(O)Cn1cc(O)c(=O)cc1C=Cc1ccccc1 [7a, (5-Hydroxy-4-oxo-2-styryl-4H-pyridin-1-yl)-acetic acid]	> 100 µM	38.8 ± 1.75%	8.41 ± 0.63 µM	8.41 µM	7.85 µM and 8.09 µM and 9.28 µM	19.28 ± 0.98%	22.90 ± 3.30%	melting point: 254 to 255 °C
CC(C)(C)c1ccc(C=Cc2cc(=O)c(O)cn2CC(=O)O)cc1 [7c, {2-[2-(4-tert-Butyl-phenyl)-vinyl]-5-hydroxy-4-oxo-4H-pyridin-1-yl}-acetic acid]	> 100 µM	49.41 ± 0.45%	2.98 ± 0.73 µM	2.98 µM	2.06 µM and 3.03 µM and 3.84 µM	26.10 ± 1.06%	25.44 ± 2.36%	
COc1ccc(C=Cc2cc(=O)c(O)cn2CC(=O)O)cc1OC [7e, {2-[2-(3,4-Dimethoxy-phenyl)-vinyl]-5-hydroxy-4-oxo-4H-pyridin-1-yl}-acetic acid]			9.56 ± 0.98 µM	9.56 µM	9.61 µM and 8.33 µM and 10.7 µM			
O=C(O)Cn1cc(O)c(=O)cc1C=Cc1ccc(F)c(F)c1 [7g, {2-[2-(3,4-Difluoro-phenyl)-vinyl]-5-hydroxy-4-oxo-4H-pyridin-1-yl}-acetic acid]	> 100 µM	35.8 ± 3.23%	2.11 ± 0.34 µM	2.11 µM	2.52 µM and 2.11 µM and 1.7 µM	55.02 ± 3.00%	28.50 ± 0.95%	
CS(=O)(=O)c1ccc(C=Cc2cc(=O)c(O)cn2CC(=O)O)cc1 [7i, {5-Hydroxy-2-[2-(4-methanesulfonyl-phenyl)-vinyl]-4-oxo-4H-pyridin-1-yl}-acetic acid]			17.1 ± 2.3 µM	17.1 µM	16.1 µM and 20.3 µM and 15 µM			
O=C(O)Cn1cc(O)c(=O)cc1C=Cc1ccc(O)c(O)c1 [7l, {2-[2-(3,4-Dihydroxy-phenyl)-vinyl]-5-hydroxy-4-oxo-4H-pyridin-1-yl}-acetic acid]	19.9 ± 1.72 µM	80 ± 3.59%	0.789 ± 0.183 µM	0.789 µM	0.916 µM and 0.921 µM and 0.53 µM	88.76 ± 2.04%	97.96 ± 0.36%	SI [1]: 25.23; % of Inhibition of Control Value (DPPH) ([4]; 1 μM): 41.48 ± 0.95%; % of Inhibition of Control Value (DPPH) ([4]; 5 μM): 67.18 ± 0.62%; % of Inhibition of Control Value (DPPH) ([4]; 10 μM): 82.44 ± 1.65%
Cc1c(O)c(=O)ccn1C [Deferiprone, 3-hydroxy-1,2-dimethyl-1H-pyridin-4-one]								% of Inhibition of Control Value (DPPH) [5]: 63%; MDA inh. % [6]: 25%
Cc1c(C)c2c(c(C)c1O)CCC(C)(C(=O)O)O2 (stereo not drawn) [Trolox, 6-hydroxy-2,5,7,8-tetramethyl-chroman-2-carboxylic acid, reference compound]						74.82 ± 1.82%	92.32 ± 0.19%	% of Inhibition of Control Value (DPPH) ([4]; 1 μM): 11.89 ± 1.39%; % of Inhibition of Control Value (DPPH) ([4]; 5 μM): 45.53 ± 1.12%; % of Inhibition of Control Value (DPPH) ([4]; 10 μM): 80.33 ± 1.22%
CC(/C=C1\SC(=S)N(CC(=O)O)C1=O)=C\c1ccccc1 [epalrestat, reference compound]	3.56 ± 0.18 µM							inhibition at 100 µM [1]: 80.8 ± 3.74%

The next lines start with results.

IC50 ([1]; n = 3)	inhibition at 100 µM [1, 7]	IC50 [2, 8]	IC50 [2, 9]	IC50 [2, 10]	Structure (SMILES)	MDA inh. % [3]	% of Inhibition of Control Value (DPPH) ([4]; 100 μM)	also measured
		5.3 ± 0.6 µM	5.3 µM	4.48 µM and 5.49 µM and 5.91 µM	Cc1ccc(C=Cc2cc(=O)c(O)cn2CC(=O)O)cc1 [7b, [5-Hydroxy-4-oxo-2-(2-p-tolyl-vinyl)-4H-pyridin-1-yl]-acetic acid]			melting point: 256 to 257 °C
		6.78 ± 0.91 µM	6.78 µM	5.7 µM and 7.92 µM and 6.7 µM	COc1ccc(C=Cc2cc(=O)c(O)cn2CC(=O)O)cc1 [7d, {5-Hydroxy-2-[2-(4-methoxy-phenyl)-vinyl]-4-oxo-4H-pyridin-1-yl}-acetic acid]			I% (ALR2 inhibitory rate) ([2]; raw data, single replicate, log(dose) -5): 54.7%
		6.64 ± 2.39 µM	6.64 µM	4.52 µM and 9.99 µM and 5.42 µM	O=C(O)Cn1cc(O)c(=O)cc1C=Cc1ccc(F)cc1 [7f, {2-[2-(4-Fluoro-phenyl)-vinyl]-5-hydroxy-4-oxo-4H-pyridin-1-yl}-acetic acid]			
		10.7 ± 1.47 µM	10.7 µM	8.88 µM and 10.8 µM and 12.5 µM	O=C(O)Cn1cc(O)c(=O)cc1C=Cc1ccc(C(F)(F)F)cc1 [7h, {5-Hydroxy-4-oxo-2-[2-(4-trifluoromethyl-phenyl)-vinyl]-4H-pyridin-1-yl}-acetic acid]			
		8.19 ± 0.43 µM	8.19 µM	8.07 µM and 7.74 µM and 8.76 µM	Nc1ccc(C=Cc2cc(=O)c(O)cn2CC(=O)O)cc1 [7j, {2-[2-(4-Amino-phenyl)-vinyl]-5-hydroxy-4-oxo-4H-pyridin-1-yl}-acetic acid]			
15 ± 0.54 µM	75.8 ± 2.34%	2.36 ± 0.42 µM		2.63 µM and 1.86 µM and 2.86 µM	O=C(O)Cn1cc(O)c(=O)cc1C=Cc1ccc(O)cc1 [7k, {5-Hydroxy-2-[2-(4-hydroxy-phenyl)-vinyl]-4-oxo-4H-pyridin-1-yl}-acetic acid]	90.73 ± 3.97%	96.69 ± 0.72%	SI [1]: 6.36; % of Inhibition of Control Value (DPPH) ([4]; 1 μM): 33.08 ± 0.72%; % of Inhibition of Control Value (DPPH) ([4]; 5 μM): 72.01 ± 1.80%; % of Inhibition of Control Value (DPPH) ([4]; 10 μM): 89.31 ± 0.62%
